Measurements taken from patent US20200069648A1, “HALOALLYLAMINE PYRAZOLE DERIVATIVE INHIBITORS OF LYSYL OXIDASES AND USES THEREOF” (Pharmaxis Ltd., priority 2017, published 2020).
Structures can show the parent of a compound that is named as a salt.

SMILES | melting point [°C]
Cc1nn(C/C(F)=C/CN)c(C)c1Cc1ccc(S(=O)(=O)N(C)C)cc1 (as salt: hydrochloride) [Compound 2, (Z)-4-((1-(4-amino-2-fluorobut-2-en-1-yl)-3,5-dimethyl-1H-pyrazol-4-yl)methyl)-N,N-dimethylbenzenesulfonamide hydrochloride] | 209 to 211
Cc1nn(C/C(F)=C/CN)c(C)c1Cc1ccc(S(=O)(=O)N(C)C)cc1Cl (as salt: hydrochloride) [Compound 3, (Z)-4-((1-(4-amino-2-fluorobut-2-en-1-yl)-3,5-dimethyl-1H-pyrazol-4-yl)methyl)-3-chloro-N,N-dimethylbenzenesulfonamide hydrochloride] | 185 to 187
Cc1nn(C/C(F)=C/CN)c(C)c1Cc1ccc(S(C)(=O)=O)cc1 (as salt: hydrochloride) [Compound 4, (Z)-4-(3,5-dimethyl-4-(4-(methylsulfonyl)benzyl)-1H-pyrazol-1-yl)-3-fluorobut-2-en-1-amine hydrochloride] | 127 to 137
Cc1nn(C/C(F)=C/CN)c(C)c1Cc1ccc(S(=O)(=O)N2CCOCC2)cc1 (as salt: hydrochloride) [Compound 6, (Z)-4-(3,5-dimethyl-4-(4-(morpholinosulfonyl)benzyl)-1H-pyrazol-1-yl)-3-fluorobut-2-en-1-amine hydrochloride] | 190 to 197
Cc1nn(C/C(F)=C/CN)c(C)c1Cc1ccc(S(=O)(=O)N2CCCC2)cc1 (as salt: hydrochloride) [Compound 7, (Z)-4-(3,5-dimethyl-4-(4-(pyrrolidin-1-ylsulfonyl)benzyl)-1H-pyrazol-1-yl)-3-fluorobut-2-en-1-amine hydrochloride] | 181 to 184
Cc1nn(C/C(F)=C/CN)c(C)c1Cc1ccc(S(=O)(=O)N(C)C)c2ccccc12 (as salt: hydrochloride) [Compound 9, (Z)-4-((1-(4-amino-2-fluorobut-2-en-1-yl)-3,5-dimethyl-1H-pyrazol-4-yl)methyl)-N,N-dimethyl naphthalene-1-sulfonamide hydrochloride] | 70 to 80
Cc1nn(Cc2ccc(S(=O)(=O)N(C)C)cc2)c(C)c1C/C(F)=C/CN (as salt: hydrochloride) [Compound 10, (Z)-4-((4-(4-amino-2-fluorobut-2-en-1-yl)-3,5-dimethyl-1H-pyrazol-1-yl)methyl)-N,N-dimethylbenzenesulfonamide hydrochloride] | 180 to 185
Cc1nn(C/C(F)=C/CN)c(C)c1Cc1ccc(C(=O)N(C)C)cc1 (as salt: hydrochloride) [Compound 14, (Z)-4-((1-(4-amino-2-fluorobut-2-en-1-yl)-3,5-dimethyl-1H-pyrazol-4-yl)methyl)-N,N-dimethylbenzamide hydrochloride] | 75 to 82
Cc1nn(C/C(F)=C/CN)c(C)c1Cc1ccc(S(C)(=O)=O)c(Cl)c1 (as salt: hydrochloride) [Compound 16, (Z)-4-(4-(3-chloro-4-(methylsulfonyl)benzyl)-3,5-dimethyl-1H-pyrazol-1-yl)-3-fluorobut-2-en-1-amine hydrochloride] | 105 to 115
CNS(=O)(=O)c1ccc(Cn2nc(C)c(C/C(F)=C/CN)c2C)c(Cl)c1 (as salt: hydrochloride) [Compound 20, (Z)-4-((4-(4-amino-2-fluorobut-2-en-1-yl)-3,5-dimethyl-1H-pyrazol-1-yl)methyl)-3-chloro-N-methylbenzenesulfonamide hydrochloride] | 80 to 86
CNS(=O)(=O)c1ccc(Cn2nc(C)c(C/C(F)=C/CN)c2C)c(C(F)(F)F)c1 (as salt: hydrochloride) [Compound 23, (Z)-4-((4-(4-amino-2-fluorobut-2-en-1-yl)-3,5-dimethyl-1H-pyrazol-1-yl)methyl)-N-methyl-3-(trifluoromethyl)benzenesulfonamide hydrochloride] | 171 to 172
Cc1nn(Cc2ccc(S(C)(=O)=O)c(Cl)c2)c(C)c1C/C(F)=C/CN (as salt: hydrochloride) [Compound 24, (Z)-4-(1-(3-chloro-4-(methylsulfonyl)benzyl)-3,5-dimethyl-1H-pyrazol-4-yl)-3-fluorobut-2-en-1-amine hydrochloride] | 92 to 94
CNS(=O)(=O)c1cc(F)c(Cn2nc(C)c(C/C(F)=C/CN)c2C)cc1F (as salt: hydrochloride) [Compound 26, (Z)-4-((4-(4-amino-2-fluorobut-2-en-1-yl)-3,5-dimethyl-1H-pyrazol-1-yl)methyl)-2,5-difluoro-N-methylbenzenesulfonamide hydrochloride] | 100 to 103
CCOC(=O)c1c(Cc2ccc(S(=O)(=O)N(C)C)cc2)c(C)nn1C/C(F)=C/CN (as salt: hydrochloride) [Compound 27, (Z)-ethyl 1-(4-amino-2-fluorobut-2-enyl)-4-(4-(N,N-dimethylsulfamoyl)benzyl)-3-methyl-1H-pyrazole-5-carboxylate hydrochloride] | 157 to 159
Cc1nn(C/C(F)=C/CN)c(C(=O)N(C)C)c1Cc1ccc(S(=O)(=O)N(C)C)cc1 (as salt: hydrochloride) [Compound 29, (Z)-1-(4-amino-2-fluorobut-2-enyl)-4-(4-(N,N-dimethylsulfamoyl)benzyl)-N,N,3-trimethyl-1H-pyrazole-5-carboxamide hydrochloride] | 77 to 80
Cc1nn(C/C(F)=C/CN)c(C(=O)O)c1Cc1ccc(S(=O)(=O)N(C)C)cc1 (as salt: hydrochloride) [Compound 30, (Z)-1-(4-amino-2-fluorobut-2-enyl)-4-(4-(N,N-dimethylsulfamoyl)benzyl)-3-methyl-1H-pyrazole-5-carboxylic acid hydrochloride] | 164 to 166
Cc1c(Cc2ccc(S(=O)(=O)N(C)C)cc2)c(C(=O)O)nn1C/C(F)=C/CN (as salt: hydrochloride) [Compound 31, (Z)-1-(4-amino-2-fluorobut-2-enyl)-4-(4-(N,N-dimethylsulfamoyl)benzyl)-5-methyl-1H-pyrazole-3-carboxylic acid hydrochloride] | 262 to 264
